Patent publication US20240067632A1, “WEE1 Degrading Compounds and Uses Thereof” (Bristol-Myers Squibb Company, priority 2022, published 2024)
pEC50: −log10 of the molar value. Where two headings read alike, the source gives them in different places.

Experiments:
MKN45 cells = experiment: MKN45 cell proliferation assay (Cell-Titer-Glo, 120 h); assay type: cell-based; conditions: for pEC50: Homo sapiens, MKN-45, 120 h, Cell-Titer-Glo, read-out: MKN45 Cell Prolif. 120 hr (EC50); for MKN45 Cell Prolif. 120 hr (Ymin-Obs): minimal percent of DMSO control observed in the concentrations tested
How it was run: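 Cells seeded at 400/well onto pre-printed 10-point half-log dilutions (top 1 or 10 uM, 0.1% DMSO final), in triplicate, and grown 120 h at 37 C. Viability by Cell-Titer-Glo luminescence, blank-subtracted and normalised to DMSO; EC50 from four-parameter logistic fit, with observed minimal % of control recorded as Ymin-obs.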

WEE1 = molecular target: T1, WEE1 (Homo sapiens, UniProt P30291+Q96SW2); experiment: WEE1-ePL degradation assay (LentiX-WEE1-ePL-GSPT1-ND cells, InCELL Hunter luminescence, 4 h); assay type: cell-based; conditions: 293T-LentiX WEE1-ePL cells; for DC50: read-out: 293T-LentiX WEE1-ePL Degradation 4 hr (EC50)
T1 construct: C-terminal ePL-tagged (DiscoverX, Fremont, CA) full-length WEE1 expression construct; expressed in transfected cells; host or cells: LentiX-HEK293T (Invitrogen), lentiviral transduction; co-expressing GSPT1-GN (G576N, lacking the first 158 amino acids)
How it was run: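 Degradation EC50 was fitted by a four-parameter logistic model, with the upper limit taken from DMSO wells. Luminescence was read with InCELL Hunter reagent after 30 min at room temperature, following a 4 h, 37° C exposure of 2500 cells/well. Cells were LentiX-HEK293T carrying ePL-tagged full-length WEE1, dosed in 10 points (3-fold) from 1 or 10 uM.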

[1] = lower limit of the fit (0 = luciferase inhibitor, Ymax = DMSO control)
[2] = lower limit of the fit (Ymin=0 luciferase inhibitor, Ymax DMSO control)

Row | SMILES | pEC50 (MKN45 cells; growth inhibition) | MKN45 Cell Prolif. 120 hr (Ymin-Obs) (MKN45 cells) | 293T-LentiX WEE1-ePL Degradation 4 hr (Ymin) (WEE1; [1]) | pEC50 (MKN45 cells) | 293T-LentiX WEE1-ePL Degradation 4 hr (Ymin) (WEE1; [2]) | DC50 (WEE1) [nM]
1 | Cc1ccc2cc(CN3CC[C@H](Oc4ccc5c(c4)CN(C4CCC(=O)NC4=O)C5=O)[C@@H]3C)ccc2n1 (stereo partly drawn) [3-(5-{[(2S,3S)-2-methyl-1-[(2-methylquinolin-6-yl)methyl]pyrrolidin-3-yl]oxy}-1-oxo-2,3-dihydro-1H-isoindol-2-yl)piperidine-2,6-dione] | < 5.00 | 87.455 | 99.5 |  |  | 
2 | O=C1CCC(N2Cc3cc(O[C@@H]4CN(Cc5ccc6nc([C@H]7CCOC7)ccc6c5)CC4(F)F)ccc3C2=O)C(=O)N1 (stereo partly drawn) [3-(5-{[(3R)-4,4-difluoro-1-({2-[(3R)-oxolan-3-yl]quinolin-6-yl}methyl)pyrrolidin-3-yl]oxy}-1-oxo-2,3-dihydro-1H-isoindol-2-yl)piperidine-2,6-dione] |  | 8.764 |  | 8.07 | 30.81 | 8.49
3 | O=C1CCC(N2Cc3cc(O[C@@H]4CN(Cc5ccc6nc([C@@H]7CCOC7)ccc6c5)CC4(F)F)ccc3C2=O)C(=O)N1 (stereo partly drawn) [3-(5-{[(3R)-4,4-difluoro-1-({2-[(3S)-oxolan-3-yl]quinolin-6-yl}methyl)pyrrolidin-3-yl]oxy}-1-oxo-2,3-dihydro-1H-isoindol-2-yl)piperidine-2,6-dione] |  | 9.159 |  | 8.00 | 30.61 | 8.39
4 | O=C1CCC(N2Cc3cc(O[C@@H]4CN(Cc5ccc6nc(C7CCOCC7)ccc6c5)CC4(F)F)ccc3C2=O)C(=O)N1 (stereo partly drawn) [3-(5-{[(3R)-4,4-difluoro-1-{[2-(oxan-4-yl)quinolin-6-yl]methyl}pyrrolidin-3-yl]oxy}-1-oxo-2,3-dihydro-1H-isoindol-2-yl)piperidine-2,6-dione] | 7.67 | 10.78 | 27.9 |  |  | 39.1
5 | O=C1CCC(N2Cc3cc(O[C@@H]4CN(Cc5ccc6nc([C@H]7CCOC7)ccc6c5)C[C@H]4F)ccc3C2=O)C(=O)N1 (stereo partly drawn) [3-(5-{[(3R,4R)-4-fluoro-1-({2-[(3R)-oxolan-3-yl]quinolin-6-yl}methyl)pyrrolidin-3-yl]oxy}-1-oxo-2,3-dihydro-1H-isoindol-2-yl)piperidine-2,6-dione] |  | 20.39 |  | 7.73 | 34.71 | 8.43
6 | O=C1CCC(N2Cc3cc(O[C@@H]4CN(Cc5ccc6nc([C@@H]7CCOC7)ccc6c5)C[C@H]4F)ccc3C2=O)C(=O)N1 (stereo partly drawn) [3-(5-{[(3R,4R)-4-fluoro-1-({2-[(3S)-oxolan-3-yl]quinolin-6-yl}methyl)pyrrolidin-3-yl]oxy}-1-oxo-2,3-dihydro-1H-isoindol-2-yl)piperidine-2,6-dione] | 7.54 | 20.1 | 29.32 |  |  | 9.69
7 | O=C1CCC(N2Cc3cc(O[C@@H]4CN(Cc5ccc6nc(C7CCOCC7)ccc6c5)C[C@H]4F)ccc3C2=O)C(=O)N1 (stereo partly drawn) [3-(5-{[(3R,4R)-4-fluoro-1-{[2-(oxan-4-yl)quinolin-6-yl]methyl}pyrrolidin-3-yl]oxy}-1-oxo-2,3-dihydro-1H-isoindol-2-yl)piperidine-2,6-dione] | 7.54 | 30.89 | 36.81 |  |  | 14.6
8 | CO[C@@H]1CN(Cc2ccc3nc(C4CCOCC4)ccc3c2)C[C@H]1Oc1ccc2c(c1)CN(C1CCC(=O)NC1=O)C2=O (stereo partly drawn) [3-(5-{[(3R,4R)-4-methoxy-1-{[2-(oxan-4-yl)quinolin-6-yl]methyl}pyrrolidin-3-yl]oxy}-1-oxo-2,3-dihydro-1H-isoindol-2-yl)piperidine-2,6-dione] | 7.77 | 22.78 | 37.67 |  |  | 11.7
9 | O=C1CCC(N2Cc3cc(O[C@@H]4CN(Cc5ccc6nc([C@H]7CCOC7)ccc6c5)C[C@@H]4F)ccc3C2=O)C(=O)N1 (stereo partly drawn) [3-(5-{[(3R,4S)-4-fluoro-1-({2-[(3R)-oxolan-3-yl]quinolin-6-yl}methyl)pyrrolidin-3-yl]oxy}-1-oxo-2,3-dihydro-1H-isoindol-2-yl)piperidine-2,6-dione] |  | 13.2 |  | 8.30 | 30.72 | 3.84
10 | O=C1CCC(N2Cc3cc(O[C@@H]4CN(Cc5ccc6nc([C@@H]7CCOC7)ccc6c5)C[C@@H]4F)ccc3C2=O)C(=O)N1 (stereo partly drawn) [3-(5-{[(3R,4S)-4-fluoro-1-({2-[(3S)-oxolan-3-yl]quinolin-6-yl}methyl)pyrrolidin-3-yl]oxy}-1-oxo-2,3-dihydro-1H-isoindol-2-yl)piperidine-2,6-dione] |  | 10.88 |  | 8.03 | 33.6 | 5.69
11 | O=C1CCC(N2Cc3cc(O[C@@H]4CN(Cc5ccc6nc(C7CCOCC7)ccc6c5)C[C@@H]4F)ccc3C2=O)C(=O)N1 (stereo partly drawn) [3-(5-{[(3R,4S)-4-fluoro-1-{[2-(oxan-4-yl)quinolin-6-yl]methyl}pyrrolidin-3-yl]oxy}-1-oxo-2,3-dihydro-1H-isoindol-2-yl)piperidine-2,6-dione] | 8.15 | 8.923 | 36 |  |  | 13.2
12 | CNC1(c2ccc3cc(CN4CC[C@H](Oc5ccc6c(c5)CN(C5CCC(=O)NC5=O)C6=O)C4)ccc3n2)COC1 (stereo partly drawn) [3-(5-{[(3S)-1-({2-[3-(methylamino)oxetan-3-yl]quinolin-6-yl}methyl)pyrrolidin-3-yl]oxy}-1-oxo-2,3-dihydro-1H-isoindol-2-yl)piperidine-2,6-dione] | 7.70 | 9.16 | 36 |  |  | 37.6
13 | CN(C)C1CCN(c2ccc3cc(CN4CC[C@H](Oc5ccc6c(c5)CN(C5CCC(=O)NC5=O)C6=O)C4)ccc3n2)CC1 (stereo partly drawn) [3-(5-{[(3S)-1-({2-[4-(dimethylamino)piperidin-1-yl]quinolin-6-yl}methyl)pyrrolidin-3-yl]oxy}-1-oxo-2,3-dihydro-1H-isoindol-2-yl)piperidine-2,6-dione] |  | 15.14 |  | 7.71 | 32.07 | 26.2
14 | CNC1CCN(c2ccc3cc(CN4CC[C@H](Oc5ccc6c(c5)CN(C5CCC(=O)NC5=O)C6=O)C4)ccc3n2)CC1 (stereo partly drawn) [3-(5-{[(3S)-1-({2-[4-(methylamino)piperidin-1-yl]quinolin-6-yl}methyl)pyrrolidin-3-yl]oxy}-1-oxo-2,3-dihydro-1H-isoindol-2-yl)piperidine-2,6-dione] |  | 25.09 |  | 7.07 | 38.12 | 64.4
15 | COC[C@@H]1CCCC[C@H]1c1ccc2cc(CN3CC[C@H](Oc4ccc5c(c4)CN(C4CCC(=O)NC4=O)C5=O)C3)ccc2n1 (stereo partly drawn) [3-(5-{[(3S)-1-({2-[(1R,2R)-2-(methoxymethyl)cyclohexyl]quinolin-6-yl}methyl)pyrrolidin-3-yl]oxy}-1-oxo-2,3-dihydro-1H-isoindol-2-yl)piperidine-2,6-dione] |  | 12.91 |  | 8.60 | 20.92 | 3.65
16 | CO[C@H]1CCCC[C@@H]1c1ccc2cc(CN3CC[C@H](Oc4ccc5c(c4)CN(C4CCC(=O)NC4=O)C5=O)C3)ccc2n1 (stereo partly drawn) [3-(5-{[(3S)-1-({2-[(1R,2S)-2-methoxycyclohexyl]quinolin-6-yl}methyl)pyrrolidin-3-yl]oxy}-1-oxo-2,3-dihydro-1H-isoindol-2-yl)piperidine-2,6-dione] |  | 23.82 |  | 8.12 | 25.39 | 4.52
17 | CO[C@H]1CCC[C@@H]1c1ccc2cc(CN3CC[C@H](Oc4ccc5c(c4)CN(C4CCC(=O)NC4=O)C5=O)C3)ccc2n1 (stereo partly drawn) [3-(5-{[(3S)-1-({2-[(1R,2S)-2-methoxycyclopentyl]quinolin-6-yl}methyl)pyrrolidin-3-yl]oxy}-1-oxo-2,3-dihydro-1H-isoindol-2-yl)piperidine-2,6-dione] |  | 8.858 |  | 8.26 | 30.79 | 4.34
18 | COC[C@@H]1CC[C@@H](c2ccc3cc(CN4CC[C@H](Oc5ccc6c(c5)CN(C5CCC(=O)NC5=O)C6=O)C4)ccc3n2)C1 (stereo partly drawn) [3-(5-{[(3S)-1-({2-[(1R,3R)-3-(methoxymethyl)cyclopentyl]quinolin-6-yl}methyl)pyrrolidin-3-yl]oxy}-1-oxo-2,3-dihydro-1H-isoindol-2-yl)piperidine-2,6-dione] |  | 8.79 |  | 8.52 | 34.2 | 3.01
19 | O=C1CCC(N2Cc3cc(O[C@H]4CCN(Cc5ccc6nc([C@@H]7CCC[C@@H](O)C7)ccc6c5)C4)ccc3C2=O)C(=O)N1 (stereo partly drawn) [3-(5-{[(3S)-1-({2-[(1R,3R)-3-hydroxycyclohexyl]quinolin-6-yl}methyl)pyrrolidin-3-yl]oxy}-1-oxo-2,3-dihydro-1H-isoindol-2-yl)piperidine-2,6-dione] | 8.93 | 8.405 | 31 |  |  | 3.18
